{
  "source": "patent US10265367B2",
  "about": "“Synergistic antibacterial effects of magnolia bark extract and L-arginine, N-α-lauroyl ethyl ester on plaque biofilm” (WM. WRIGLEY JR. COMPANY, priority 2015, dated 2019)",
  "key": {"[1]": {"test_system": "salivary bacteria biofilm", "test": "In vitro biofilm assay (salivary bacteria on saliva-treated hydroxyapatite discs)", "format": "cell-based", "method": "Biofilms were prepared and tested by a modified method from Guggenheim (Guggenheim B., Gierstein E., Schupbach P, Shapiro S., 2001. “Validation of an in vitro biofilm model of supragingival plaque” Journal Dental Research 80:363-370), which is herein incorporated by reference. Briefly, biofilms were grown by incubating salivary bacteria with saliva-treated hydroxyapatite (HA) discs in sterile 24 well cell culture plates. Using media supplemented with saliva (25% total volume), and transferring discs frequently during the growth phase, encouraged growth of a dental plaque-like biofilm. This was developed for up to 72 hours. The biofilm was exposed to the test compositions (set forth in Table 1) three times a day, for five minutes, on days two and three of the experiment. Biofilm was quantified turbidometrically and by spectrophometric absorption at 600 nm.\nThe number of CFU for each biofilm was determined as follows. After vigorous shaking, 0.1 ml of the liquid from each biofilm cell was pipetted into 10 ml reverse osmosis (RO) H2O (100× dilution). The 100× dilution was shaken, and 0.1 ml was pipetted into 10 ml RO H2O (10,000× dilution). […] After the growth period, the number of colonies of bacteria growing on each plate were counted. […]\nThe IC40 of MBE was determined, and was used as a positive control concentration."}, "salivary bacteria": {"test_system": "salivary bacteria", "test": "Inhibition of biofilm formation on saliva-precoated pegs (Calgary device), MBIC/FBIC", "format": "cell-based", "method": "80 ml of saliva was collected from 4 donors and centrifuged at 3800 rpm to remove food debris. 15 ml supernatant was removed and mixed with an equal volume of 1×PBS. The mixture was then filter sterilized to collect saliva proteins that were used to precoat suspended pegs in the lid of the Calgary device for 3 hours. Meanwhile, the remaining saliva was centrifuged at 10,000 rpm to collect bacteria for biofilm inoculum. After centrifugation, the pellet was resuspended to an OD600 of 0.05 and premixed with defined concentrations of LAE-CF (99% purity, from Vedeqsa), MBE and a combination of the two actives at predetermined ratios. The actives and inoculum were added to the saliva precoated pegs and incubated overnight for at least 16 hours to allow for biofilm formation. Controls included growth (no actives) and media only (no bacteria).\nThe efficacy of the LAE and MBE synergistic effects are shown in the minimal biofilm inhibitory concentrations (MBIC) and fractional biofilm inhibitory concentration (FBIC) for the two actives. The FBIC was calculated according to the following formula: FBIC=[QA/Qa+QB/Qb] where\nQA=the MBIC of component A combined with component B.\nQa=the MBIC of component A alone.\nQB=the MBIC of component B combined with component A.\nQb=the MBIC of component B alone. […]"}},
  "data": [
    {"smiles": "CCCCCCCCCCCC(=O)N[C@@H](CCCNC(=N)N)C(=O)OCC", "note": "[LAE, L-arginine, N^α-lauroyl ethyl ester]", "values": [
      {"measurement": "inhibition at 1000 ppm", "setting": "[1]; 5 min, 1000 ppm, biofilm exposed 5 min three times a day on days 2 and 3", "value": 82, "unit": "%"},
      {"measurement": "percent inhibition compared to the positive control", "setting": "[1]; positive control = MBE at IC40", "value": "not better than the positive control"},
      {"measurement": "FBIC (fractional biofilm inhibitory concentration)", "setting": "salivary bacteria; FBIC=QA/Qa+QB/Qb, <1 synergistic", "value": 1},
      {"measurement": "MBIC (minimal biofilm inhibitory concentration)", "setting": "salivary bacteria; active alone, overnight at least 16 hours", "value": 125, "unit": "ppm"}
    ]}
  ]
}
